For one assay, the system named is BaF3 wild-type cells. The experiment in a line: Cellular screening, BaF3 wild-type cells (Alamar Blue). In kind it is cell-based. The following applies: Mus musculus, 48-72 hr incubation, read-out: BAF3wt_IC50_μM. The method, then:
(§1) For screening purposes, compounds were diluted in 96 well plates at a concentration of 20 μM. Plates were warmed at 37° C. for 30 minutes before the assay was performed.
(§2) The growth factor dependent myelomonocytic cell line BaF3 bearing the pTET-off plasmid (Clontech) was transfected with either pTELJAK2 or pTELJAK3, and the transfected cells were selected for growth-factor independent cell growth. The BaF3 wild-type cells were cultured in DMEM containing 10% FCS, 10% WEHI 3B conditioned medium. The BaF3 TELJAK cells ([…]) were cultured in DMEM 10% Tet-System Approved FBS (without WEHI 3B conditioned medium).
(§3) Cell suspensions were prepared by harvesting cells from culture (the cells used in this test were in late log phase growth with high viability.) Cells were diluted in the appropriate growth medium, as described above, to 1.1× final concentration (from 50,000 cell/mL to 200,000 cell/mL, depending on cell line).
(§4) Compounds to be tested were added (10 μL, 10× final concentration) to a flat bottomed 96-well plate. The cellular suspension (90 μL per well) was then added, and the plate incubated for 48-72 hr at 37° C., 5% CO2. Alamar Blue 10 μL per well was added and the plates returned to the incubator for a further 4-6 hours. The plates were then read at 544 nm.
(§5) Result are given in table 2 where +++ is <1 μM, ++ is <5 μM and + is <20 μM

In assay [1] the test system is BaF3 TELJAK cells (BafT_J2). In words: Cellular screening, BaF3 TELJAK2 cells (Alamar Blue). In kind it is cell-based. The following applies: Mus musculus, BaF3; 48-72 hr incubation; read-out: BafT_J2_IC50_μM. The method, then: as §1
A TEL/Jak2 fusion was generated by digestion of the TELPCR product with BamH I/Sal I restriction enzymes, digestion of the JAK2 PCR product with Sal I/Not I restriction enzymes, followed by ligation and subcloning of the ligation product into the mammalian expression Vector pTRE 2 (Clontech), which was prepared by digestion with BamH I—Not I restriction enzymes, to give the TEL/Jak2 fusion plasmid pTELJAK2.
as §2, §3
Compounds to be tested were added (10 μL, 10× final concentration) to a flat bottomed 96-well plate. The cellular suspension (90 μL per well) was then added, and the plate incubated for 48-72 hr at 37° C., 5% CO2. Alamar Blue 10 μL per well was added and the plates returned to the incubator for a further 4-6 hours.
as §5

The next assay relates to CTLL2. In words: Cellular screening, CTLL2 cells (Alamar Blue). In kind it is cell-based. As to conditions: Mus musculus, CTLL-2; 48-72 hr incubation; read-out: CTLL2_IC50_μM. As for the experimental part: as §1, §3, §4, §5
For another assay, the target named is human JAK2 (Homo sapiens (Human), UniProt O60674). In words: JAK2 kinase domain Alphascreen enzyme screening. In kind it is biochemical. As to conditions: read-out: JAK2_IC50_nM. The method, then: (§6) For screening purposes, compounds (in 100% DMSO) were warmed at 37° C. for at least 20 minutes before use. A […] stock was initially made in assay buffer, where the final concentration of DMSO was 0.3%. The stocks were then diluted in 384 well Optiplates (Packard) where the final concentration of the compound was 5 μM.
Sequence of human JAK2 (O60674 849-1124): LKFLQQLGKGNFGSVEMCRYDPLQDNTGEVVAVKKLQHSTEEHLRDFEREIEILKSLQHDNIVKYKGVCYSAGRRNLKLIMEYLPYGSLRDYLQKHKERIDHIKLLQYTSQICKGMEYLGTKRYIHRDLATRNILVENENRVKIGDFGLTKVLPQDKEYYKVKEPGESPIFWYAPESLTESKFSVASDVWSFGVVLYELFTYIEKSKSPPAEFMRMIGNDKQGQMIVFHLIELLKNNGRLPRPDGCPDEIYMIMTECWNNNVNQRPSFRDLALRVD
The kinase domain of human JAK2 was amplified from U937 mRNA using the polymerase chain reaction with the following primers: […]
The JAK2 PCR products were cloned into the pDest20 destination vector (Gibco). The JAK2 plasmid was then transformed into competent DH10Bac cells (Gibco), and the recombinant baculovirus was prepared via Sf9 insect cell transfection.
(§7) Baculovirus preparations from each of the JAK family members were infected into one litre of […] (Spodoptera frugiperda) cells (Invitrogen) grown in SF900II serum free medium (Invitrogen) to a cell density of approximately 2×10^6 cells/ml. Cells were infected with virus at a cell culture to virus stock ratio of 20:1. Cells were harvested and lysed 48 hours post infection. The GST-tagged JAK kinase domains were purified by affinity chromatography on a GSH agarose column (Scientifix).
Alphascreen phosphotyrosine acceptor beads followed by streptavidin donor beads at a concentration of 1/100 in stop buffer were added to each well under subdued light and incubated for 2-3 hours. The Alphascreen plates were read on a Packard Fusion Alpha instrument

The target of another assay is human JAK3 (Homo sapiens (Human), UniProt P52333). In words: JAK3 kinase domain Alphascreen enzyme screening. In kind it is biochemical. The following applies: read-out: JAK3_ IC50_nM. The method, then:
as §6
The kinase domain of human JAK3 was amplified from U937 mRNA using the polymerase chain reaction with the following primers: […]
The JAK3 PCR products were cloned into the pDest20 destination expression vector (Gibco). The JAK3 plasmid was then transformed into competent DH10Bac cells (Gibco), and the recombinant baculovirus was prepared via Sf9 insect cell transfection.
as §7
The compounds were then incubated with substrate in the presence of either […] ATP for 60 or 90 minutes. […] (final concentration 111 μM) or substrate-2 substrate with the sequence biotin-[…] [SEQ ID NO: 16] (final concentration 133 μM). Alphascreen phosphotyrosine acceptor beads followed by streptavidin donor beads at a concentration of 1/100 in stop buffer were added to each well under subdued light and incubated for 2-3 hours. The Alphascreen plates were read on a Packard Fusion Alpha instrument

The text below walks through data of patent publication US12570614B2, “Phenyl amino pyrimidine compounds and uses thereof” (GlaxoSmithKline LLC, priority 2007, dated 2026).

Sequence of human JAK3 (P52333 822-1111): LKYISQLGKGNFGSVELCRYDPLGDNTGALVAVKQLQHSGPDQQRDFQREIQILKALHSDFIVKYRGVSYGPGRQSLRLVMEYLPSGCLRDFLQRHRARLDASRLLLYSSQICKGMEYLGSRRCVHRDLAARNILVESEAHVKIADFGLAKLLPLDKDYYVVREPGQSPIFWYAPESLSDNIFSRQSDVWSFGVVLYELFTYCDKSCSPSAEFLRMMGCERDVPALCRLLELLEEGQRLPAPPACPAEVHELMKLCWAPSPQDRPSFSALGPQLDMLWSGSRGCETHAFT

In the case of `CCOC(=O)c1ccc(-c2ccnc(Nc3ccc(N4CCOCC4)cc3)n2)cc1` [Compound 1, ethyl 4-(2-(4-morpholinophenyl-amino)pyrimidin-4-yl)benzoate], the IC50 (in the assay on BaF3 wild-type cells; in assay [1]; in the assay with CTLL2) was > 20 µM throughout.
On to `N#Cc1cccc(-c2ccnc(Nc3ccc(N4CCOCC4)cc3)n2)c1` [Compound 5, 3-(2-(4-morpholinophenyl-amino)pyrimidin-4-yl)benzonitrile], for which the IC50 on human JAK2 was < 0.5 µM; in assay [1] it was > 20 µM.
For the compound `N#Cc1cc(-c2ccnc(Nc3ccc(N4CCOCC4)cc3)n2)ccc1F` [Compound 7, 2-fluoro-5-(2-(4-morpholinophenyl-amino)pyrimidin-4-yl)benzonitrile], at human JAK2, the IC50 was > 1 µM.
With `COc1cc(Nc2nccc(-c3ccc(F)c(C#N)c3)n2)cc(OC)c1OC` [Compound 8, 2-fluoro-5-(2-(3,4,5-trimethoxyphenyl-amino)pyrimidin-4-yl)benzonitrile], the IC50 on human JAK2 was < 0.5 µM.
Consider `N#Cc1cc(-c2ccnc(Nc3ccc(N4CCOCC4)cc3)n2)ccc1O` [Compound 9, 2-hydroxy-5-(2-(4-morpholinophenyl-amino)pyrimidin-4-yl)benzonitrile], for which the IC50 at human JAK2 is < 0.5 µM; on human JAK3 it was < 0.5 µM; in the assay with BaF3 wild-type cells, < 5 µM; in assay [1], < 5 µM; with CTLL2, < 5 µM.
Turning to `Cc1cc(-c2ccnc(Nc3ccc(N4CCOCC4)cc3)n2)ccc1C(=O)NCC#N` [Compound 11, N-(cyanomethyl)-2-methyl-4-(2-(4-morpholinophenyl-amino)pyrimidin-4-yl)benzamide], the results for the IC50 on human JAK2 and in the assay on CTLL2 were < 0.1 µM and < 5 µM, respectively.
Turning to `COc1cc(-c2ccnc(Nc3ccc(N4CCOCC4)cc3)n2)ccc1C#N` [Compound 16, 2-methoxy-4-(2-(4-morpholinophenyl-amino)pyrimidin-4-yl)benzonitrile], the IC50 on human JAK2 is > 1 µM; at human JAK3 it was > 1 µM; in the assay on BaF3 wild-type cells it was > 20 µM; in assay [1] it was > 20 µM; in the assay with CTLL2 it was > 20 µM.
Turning to `O=C(NCc1ccncc1)c1ccc(-c2ccnc(Nc3ccc(N4CCOCC4)cc3)n2)cc1` [Compound 17, 4-(2-(4-morpholinophenyl-amino)pyrimidin-4-yl)-N-(pyridin-4-ylmethyl)benzamide], the IC50 on human JAK2 is < 0.5 µM; at human JAK3 it was < 1 µM; with BaF3 wild-type cells it was < 20 µM; in assay [1], < 5 µM; with CTLL2 it was > 20 µM.
For `O=C(NCc1cccnc1)c1ccc(-c2ccnc(Nc3ccc(N4CCOCC4)cc3)n2)cc1` [Compound 18, 4-(2-(4-morpholinophenyl-amino)pyrimidin-4-yl)-N-(pyridin-3-ylmethyl)benzamide], in that order: < 0.5 µM, < 1 µM, > 20 µM, < 5 µM and < 20 µM.
For the compound `N#Cc1ccc(-c2ccnc(Nc3ccc(N4CCOCC4)cc3)n2)cc1Cl` [Compound 19, 2-chloro-4-(2-(4-morpholinophenyl-amino)pyrimidin-4-yl)benzonitrile], the IC50 on human JAK2 was > 1 µM; on human JAK3 it was > 1 µM; in assay [1], > 20 µM.
On to `O=C(Nc1cc[nH]n1)c1ccc(-c2ccnc(Nc3ccc(N4CCOCC4)cc3)n2)cc1` [Compound 22, 4-(2-(4-morpholinophenyl-amino)pyrimidin-4-yl)-N-(1H-pyrazol-3-yl)benzamide], for which the IC50 at human JAK2 is > 1 µM; at human JAK3 it was < 0.5 µM; in assay [1] it was > 20 µM.
Regarding `CC(C)(C#N)NC(=O)c1ccc(-c2ccnc(Nc3ccc(N4CCOCC4)cc3)n2)cc1` [Compound 23, N-(2-cyanopropan-2-yl)-4-(2-(4-morpholinophenyl-amino)pyrimidin-4-yl)benzamide], the IC50 at human JAK2 is < 1 µM; at human JAK3 it was < 0.5 µM.
Consider `N#CCNC(=O)c1ccc(-c2ccnc(Nc3ccc(N4CCSCC4)cc3)n2)cc1` [Compound 25, N-(cyanomethyl)-4-(2-(4-thiomorpholino-phenylamino)pyrimidin-4-yl)benzamide], for which the IC50 with CTLL2 is < 5 µM.
`N#CCNC(=O)c1ccc(-c2ccnc(Nc3ccc(N4CCC(O)CC4)cc3)n2)cc1` [Compound 36, N-(cyanomethyl)-4-(2-(4-(4-hydroxypiperidin-1-yl)phenylamino)pyrimidin-4-yl)benzamide]: the IC50 is < 0.1 µM at human JAK3, < 5 µM in the assay on BaF3 wild-type cells, < 1 µM in assay [1] and < 5 µM in the assay on CTLL2.
As to `Cc1cnc(Nc2ccc(N3CCC(CO)CC3)cc2)nc1-c1ccc(C(=O)NCC#N)cc1` [Compound 39, N-(cyanomethyl)-4-(2-(4-(4-(hydroxymethyl)piperidin-1-yl)phenylamino)-5-methylpyrimidin-4-yl)benzamide], the IC50 is < 0.1 µM at human JAK3, < 5 µM with BaF3 wild-type cells, < 1 µM in assay [1] and < 5 µM with CTLL2.
For the compound `CN1CCN(c2ccc(Nc3nccc(-c4ccc(C(=O)NCC#N)cc4)n3)cc2)CC1` [Compound 44, N-(cyanomethyl)-4-(2-(4-(4-methylpiperazin-1-yl)phenylamino)pyrimidin-4-yl)benzamide], the IC50 at human JAK3 was < 0.5 µM; in the assay on BaF3 wild-type cells, < 5 µM; with CTLL2, < 5 µM.
`COc1cc(-c2ccnc(Nc3ccc(N4CCOCC4)cc3)n2)ccc1C(=O)NCC#N` [Compound 45, N-(cyanomethyl)-2-methoxy-4-(2-(4-morpholinophenyl-amino)pyrimidin-4-yl)benzamide]: the IC50 on human JAK2 was < 0.1 µM; on human JAK3, < 0.1 µM; in the assay with CTLL2, < 1 µM.
In the case of `Cc1cnc(Nc2ccc(N3CCCC(O)C3)cc2)nc1-c1ccc(C(=O)NCC#N)cc1` (centres unmarked) [Compound 46], the IC50 in the assay on BaF3 wild-type cells was < 5 µM; in the assay on CTLL2, < 1 µM.
As to `N#CCC(=O)Nc1ccc(-c2ccnc(Nc3ccc(N4CCOCC4)cc3)n2)cc1` [Compound 85, 2-cyano-N-(4-(2-(4-morpholinophenyl-amino)pyrimidin-4-yl)phenyl)acetamide], the IC50 with BaF3 wild-type cells was < 5 µM; with CTLL2, < 1 µM.
Take `N#CCNC(=O)c1ccc(-c2ccnc(Nc3ccc(CN4CCS(=O)(=O)CC4)cc3)n2)cc1` [Compound 90]: the IC50 at human JAK2 was < 0.1 µM; in the assay with BaF3 wild-type cells, < 1 µM; with CTLL2, < 20 µM.
As for `Cc1cnc(Nc2ccc(N3CCOCC3)cc2)nc1-c1ccc(C(=O)NCC#N)cc1` [Compound 92, N-(cyanomethyl)-4-(5-methyl-2-(4-morpholinophenyl-amino)pyrimidin-4-yl)benzamide], the IC50 at human JAK2 is < 0.1 µM; on human JAK3, < 0.1 µM; in the assay with CTLL2, < 1 µM.
